# Experiments:
# [1] = tested on: Bub1 kinase (histone 2A phosphorylation); test: H2A Formation-Assay (cell-based mechanistic assay, co-treatment with Nocodazole); conditions: 16 h, Nocodazole 1 μg/ml together with test compound for 16 h; read-out: Biological Assay 4.1: H2A Formation IC50
# Procedure: Biological Assay 4.1: Formation-Assay
# Cell-Based Mechanistic Assay: Changes of Phosphorylation Status of Histone 2A by Inhibition of Kinase Activity of Bub1
# This assay determines the suppression of histone 2A phosphorylation by a Bub1 kinase inhibitor during co-treatment with Nocodazole. 25000 cells (cells were ordered from ATCC) were seeded in 96 well plate for 5 h at 37° C. Cells were treated with Nocodazole (1 μg/ml) and varying concentrations (between 3 nM and 10 μM) of test compounds for 16h. Cells were fixed (20 min, Fixing solution R&D), washed three times with PBS and blocked with Odyssey blocking buffer before incubating with the primary antibody against phosphorylated H2A (5 μg/ml ABIN482721) overnight at […]. After washing, secondary IRDye-labeled antibody mix with cell stains was added for 1h and washed again with PBS. Plates were scanned with LiCor Odyssey Infrared Imager CLx at 800 nm for P-H2A and at 700 nm for cell stains Draq5/Sapphire. The quotient of 800 nm and 700 nm for Nocodazole only treated cells was set as 100% and the quotient of 800 nm and 700 nm of untreated cells was set as 0%. […] The IC50 values were determined by means of a 4 parameter fit.
# (§1) Histone H2A is an immediate intracellular substrate of Bub1 kinase. Determination of the phosphorylation status of Histone H2A provides a direct measure of the intracellular activity of Bub1 kinase.
# [2] = tested on: Bub1 kinase (pre-induced phospho-histone 2A); test: H2A Abrogation-Assay (cell-based mechanistic assay, pre-treatment with Nocodazole); conditions: Nocodazole 1 μg/ml 16 h, then test compound 1 h; read-out: Biological Assay 4.2: H2A Abrogation IC50
# Procedure: Biological Assay 4.2: Abrogation-Assay
# Cell-Based Mechanistic Assay: Changes of Phosphorylation Status of Pre-Induced Phospho-Histone 2A by Inhibition of Kinase Activity of Bub1
# This assay measures the inhibition of histone 2A phosphorylation, which was induced by pre-treatment of the cells with Nocodazole, by a Bub1 kinase inhibitor. 25000 cells (cells were ordered from ATCC) were seeded in 96 well plate for 5 h at 37° C. Cells were treated with Nocodazole (1 μg/ml). After 16h varying concentrations (between 3 nM and 10 μM) of test compounds were added and the cells were incubated for another 1h. Cells were fixed (20 min, Fixing solution R&D), washed three times with PBS and blocked with Odyssey blocking buffer before incubating with the primary antibody against phosphorylated H2A (5 μg/ml ABIN482721) overnight at 2-8° C. After washing, secondary IRDye-labeled antibody mix with cell stains was added for 1h and washed again with PBS. Plates were scanned with LiCor Odyssey Infrared Imager CLx at 800 nm for P-H2A and at 700 nm for cell stains Draq5/Sapphire. The quotient of 800 nm and 700 nm for Nocodazole only treated cells was set as 100% and the quotient of 800 nm and 700 nm of untreated cells was set as 0%. […] The IC50 values were determined by means of a 4 parameter fit.
# as §1
# [3] = biological target: T1, catalytic domain of human Bub1 (amino acids 704-1085) (Homo sapiens, UniProt O43683); test: Bub1 kinase assay (TR-FRET); assay type: biochemical; conditions: 10 μM ATP, 60 min reaction, pH 7.5; read-out: Biological Assay 1: Bub1 kinase assay median IC50
# T1 construct: catalytic domain of human Bub1 (amino acids 704-1085); His6 (N); made in house; host or cells: Hi5 insect cells
# T1 sequence (O43683 704-1085): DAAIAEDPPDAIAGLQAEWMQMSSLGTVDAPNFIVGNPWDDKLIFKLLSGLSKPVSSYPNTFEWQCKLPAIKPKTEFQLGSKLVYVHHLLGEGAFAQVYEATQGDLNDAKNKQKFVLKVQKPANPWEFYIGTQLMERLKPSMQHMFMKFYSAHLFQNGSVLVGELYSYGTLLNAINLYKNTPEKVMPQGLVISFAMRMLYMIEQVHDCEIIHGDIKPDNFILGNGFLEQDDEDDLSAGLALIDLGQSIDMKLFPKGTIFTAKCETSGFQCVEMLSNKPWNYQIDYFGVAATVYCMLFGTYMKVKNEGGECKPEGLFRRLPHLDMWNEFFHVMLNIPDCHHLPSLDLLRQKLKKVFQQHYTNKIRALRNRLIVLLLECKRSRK
# Procedure: To this end, 100-fold concentrated compound solutions (in DMSO) were previously prepared by serial dilution (1:3.4) of 2 mM stocks in a clear low volume 384-well source microtiter plate (Greiner Bio-One, Frickenhausen, Germany), from which 50 nL of compounds were transferred into a black low volume test microtiter plate from the same supplier. […] The resulting mixture (5 μL final volume) was incubated at 22° during 60 min., and the reaction was stopped by the addition of 5 μL of an aqueous EDTA-solution (50 mM EDTA, in 100 mM HEPES pH 7.5 and 0.2% (w/v) bovine serum albumin) which also contained the TR-FRET detection reagents (0.2 μM streptavidin-XL665 [Cisbio Bioassays, Codolet, France] and 1 nM anti-phosho-Serine antibody [Merck Millipore, cat. #35-001] and 0.4 nM LANCE EU-W1024 labeled anti-mouse IgG antibody [Perkin-Elmer, product no. AD0077, alternatively a Terbium-cryptate-labeled anti-mouse IgG antibody from Cisbio Bioassays can be used]). The stopped reaction mixture was further incubated 1 h at 22° C. in order to allow the formation of complexes between peptides and detection reagents. Subsequently, the amount of product was evaluated by measurement of the resonance energy transfer from the Eu-chelate-antibody complex recognizing the Phosphoserine residue to the streptavidin-XL665 bound to the biotin moiety of the peptide. […] IC50 values were calculated by fitting the normalized inhibition data to a 4-parameter logistic equation (Minimum, Maximum, IC50, Hill; Y=Max+(Min−Max)/(1+(X/IC50)Hill)).
# [4] = tested on: HeLa human cervical tumor cells; test: Proliferation Assay (HeLa+Paclitaxel); assay type: cell-based; conditions: 3 nM paclitaxel, test substance 92 hours; read-out: Biological Assay 3: Proliferation Assay (HeLa + Paclitaxel) IC50
# Procedure: Proliferation Assay (HeLa+Paclitaxel):
# (§2) Cultivated HeLa human cervical tumor cells (DSMZ ACC-57) were plated at a density of 3000 cells/well in a 96-well multititer plate in 200 μL of growth medium supplemented 10% fetal calf serum. After 24 hours, the cells of one plate (zero-point plate) were stained with crystal violet (see below). The medium of the other plates was supplemented with 3 nM of paclitaxel (Sigma-Aldrich) and the cells were incubated at 37° C. After 4 hours the test substances were added in various concentrations (0 μM, as well as in the range of 0.001-10 μM; the final concentration of the solvent dimethyl sulfoxide was adjusted to 0.1%) using a Hewlett-Packard HP D300 Digital Dispenser. The cells were incubated for another 92 hours at 37° C. in the presence of test substances. […] After three washing cycles of the fixed cells with water, the plates were dried at room temperature. The cells were stained by adding 100 μL/measuring point of a 0.1% crystal violet solution (pH 3.0). After three washing cycles of the stained cells with water, the plates were dried at room temperature. The dye was dissolved by adding 100 μL/measuring point of a 10% acetic acid solution. […] The change of cell number, in percent, was calculated by normalization of the measured values to the absorption values of the zero-point plate (=0%) and the 5 absorption of the untreated (0 μm) cells (=100%). The IC50 values were determined by means of a 4 parameter fit.
# [5] = tested on: HeLa human cervical tumor cells; test: Proliferation assay (HeLa cell line); assay type: cell-based; conditions: 96 h, 4 days incubation, crystal violet, read-out: Biological Assay 2: Proliferation assay (HeLa cell line) median IC50
# Procedure: as §2, with “Human tumour cells were originally obtained from the American Type Culture Collection (ATCC), the Deutsche Sammlung von Mikroorganismen und Zellkulturen (DSMZ, German Collection of Microorganisms and Cell Cultures), or Epo GmbH Berlin. Cultivated” for “Cultivated”, “below), while the” for “below). The”, “with” for “with 3 nM of paclitaxel (Sigma-Aldrich) and the cells were incubated at 37° C. After 4 hours”, “substances” for “substances were added”, “4 days” for “another 92 hours at 37° C.”, “the” for “the 5”
SMILES,IC50 [1] [nM],IC50 [2] [nM],IC50 [3] [nM],IC50 [4] [nM],IC50 [5] [µM]
"COc1cnc(-c2nn(Cc3c(F)cc(OCCO)cc3F)c3ccccc23)nc1Nc1ccnc(NC(C)=O)c1 [Example 2-1-4, N-{4-[(2-{1-[2,6-difluoro-4-(2-hydroxyethoxy)benzyl]-1H-indazol-3-yl}-5-methoxypyrimidin-4-yl)amino]pyridin-2-yl}acetamide]",8.2,150,8.3,100,> 10
"COc1cnc(-c2nn(Cc3c(F)cc(OC[C@H](C)CO)cc3F)c3ccccc23)nc1Nc1ccnc(NC(C)=O)c1 [Example 2-3-6, N-[4-({2-[1-(2,6-difluoro-4-{[(2R)-3-hydroxy-2-methylpropyl]oxy}benzyl)-1H-indazol-3-yl]-5-methoxypyrimidin-4-yl}amino)pyridin-2-yl]acetamide]",53,0.27,19,120,> 10
"COc1cnc(-c2nn(Cc3c(F)cc(OCCO)cc3F)c3ccccc23)nc1Nc1ccnc(F)c1 [Example 2-1-11, 2-{3,5-difluoro-4-[(3-{4-[(2-fluoropyridin-4-yl)amino]-5-methoxypyrimidin-2-yl}-1H-indazol-1-yl)methyl]phenoxy}ethanol]",4.9,5.2,19,110,5.1
"COc1cnc(-c2nn(Cc3c(F)cc(OCCO)cc3F)c3ccccc23)nc1Nc1ccncc1F [Example 2-1-6, 2-{3,5-difluoro-4-[(3-{4-[(3-fluoropyridin-4-yl)amino]-5-methoxypyrimidin-2-yl}-1H-indazol-1-yl)methyl]phenoxy}ethanol]",56,890,7.7,370,8.5
"COc1cnc(-c2nn(Cc3c(F)cc(OCCO)cc3F)c3ccccc23)nc1Nc1ccncc1C [Example 2-1-5, 2-{3,5-difluoro-4-[(3-{5-methoxy-4-[(3-methylpyridin-4-yl)amino]pyrimidin-2-yl}-1H-indazol-1-yl)methyl]phenoxy}ethanol]",6.9,600,10,150,3.1
"COc1cnc(-c2nn(Cc3c(F)cc(OCCO)cc3F)c3ccccc23)nc1Nc1ccnc(C)c1OC [Example 2-1-18, 2-{3,5-difluoro-4-[(3-{5-methoxy-4-[(3-methoxy-2-methylpyridin-4-yl)amino]pyrimidin-2-yl}-1H-indazol-1-yl)methyl]phenoxy}ethanol]",35,2.1,14,51,1.4
"COc1cnc(-c2nn(Cc3c(F)cc(OCCO)cc3F)c3ccccc23)nc1Nc1ccncc1 [Example 6-1-1, 2-[3,5-difluoro-4-({3-[5-methoxy-4-(pyridin-4-ylamino)pyrimidin-2-yl]-1H-indazol-1-yl}methyl)phenoxy]ethanol, reference compound]",200,5400,6.2,430,3.2
"COc1cnc(-c2nn(Cc3c(F)cc(OCCO)cc3F)c3ccccc23)nc1Nc1ccnc(NC(=O)C2CC2)c1 [Example 2-1-15, N-{4-[(2-{1-[2,6-difluoro-4-(2-hydroxyethoxy)benzyl]-1H-indazol-3-yl}-5-methoxy-pyrimidin-4-yl)amino]pyridin-2-yl}cyclopropanecarboxamide]",24,1.2,9.8,360,> 10
"COc1cnc(-c2nn(Cc3c(F)cc(OCCO)cc3F)c3ccccc23)nc1Nc1cc(C)ncc1F [Example 2-1-12, 2-{3,5-difluoro-4-[(3-{4-[(5-fluoro-2-methylpyridin-4-yl)amino]-5-methoxypyrimidin-2-yl}-1H-indazol-1-yl)methyl]phenoxy}ethanol]",6,11,33,420,> 10
"COc1cnc(-c2nn(Cc3c(F)cc(OCCCO)cc3F)c3ccccc23)nc1Nc1ccnc(C)c1 [Example 2-3-8, 3-{3,5-difluoro-4-[(3-{5-methoxy-4-[(2-methylpyridin-4-yl)amino]pyrimidin-2-yl}-1H-indazol-1-yl)methyl]phenoxy}propan-1-ol]",> 1000,> 1000,17,160,2.6
